According to patent publication US11504431B2, “Formulations for the suprachoroidal space of an eye and methods” (Emory University, priority 2016, dated 2022):

Tests used:
[1] = value assumed or taken from literature; cited from earlier work
[2] = system: SCS of rabbit eyes ex vivo; test: Ex vivo SCS microneedle injection, flat mount of 2D circumferential spread; set-up: species or system New Zealand White rabbit; settings: in HBSS with 0.2 μm red-fluorescent particles, 25-150 μL, 3 minutes post-injection, mean±SEM
Experimental: Extraocular tissues were carefully removed from the rabbit ocular globe. To simulate a physiological intraocular pressure (IOP) of 10-12 mmHg, a water column was raised to ˜14 cm and connected to the eye via a 25-gauge needle penetrated through the optic nerve. A microneedle (750 μm in length, 33-gauge; Clearside Biomedical, Alpharetta, Ga.) attached to a 250 μL glass chromatography syringe (National Scientific, Rockwood, Tenn.) was used to make injections.
Depending on the experimental condition, each injection consisted of 25 to 150 μL of 0.5% (w/v) red-fluorescent particles (0.2 μm diameter; Excitation: 580 nm; Emission: 605 nm) and 0.025% (w/v) fluorescein suspended in Hank's Balanced Salt Solution (HBSS; Gibco, Life Technologies). After each injection, the needle was held in place for 1 minute to minimize reflux. The eye was then frozen via submersion in 100% ethanol chilled over dry ice 3 minutes post-injection depending on experimental condition.
After SCS injection and freezing, eyes were prepared to assess the 2D spread of particles and fluorescein. […]
A digital SLR camera (Canon 60D, Canon, Melville, N.Y.) with a 100 mm lens (Canon) was used to acquire brightfield and fluorescence images. […] The area of green and red fluorescence that was above threshold was calculated for each eye using ImageJ (National Institutes of Health, Bethesda, Md.). […]

rabbit SCS in vivo [3] = test: In vivo SCS injection, RetCam fluorescence fundus imaging of area coverage and co-localization; set-up: species or system New Zealand White rabbit
Source text: Also investigated was the role of formulation and time on particle distribution in the SCS. The distribution of red-fluorescent particles suspended with green fluorescently-tagged formulation excipients in HBSS after injection into the SCS of live rabbits was imaged using red and green fluorescence simultaneously. Fluorescence was imaged using RetCam imaging, which was preferred to other non-contact fundus imaging methods, since it enabled visualization of the posterior pole as well as the far periphery (i.e., the injection site). The percentage of the SCS area in the composite images that had red/green fluorescence values at least 0.1% of the starting concentration was then calculated, and this calculation was used as a proxy of true coverage; and determined the incidence of co-localization of the red and green fluorescence greater than chance. […]
At predetermined time points, the animals were imaged with a modified RetCam II system (Clarity Medical Systems, Pleasanton, Calif.). […] The built-in fluorescein attachment was used to capture green fluorescence. For the red fluorescence, green light was generated by placing a 575±50 nm bandpass filter (Edmunds Optics) in line with the fiber optic line. A red-emission filter (610±10 nm, Omega Optical, Brattleboro, Vt.) was placed over the camera to capture red fluorescence. […]

SCS of live rabbits [4] = test: SCS clearance kinetics by fundus imaging
rabbit SCS in vivo [5] = test: Clearance of fluorescein from the SCS by fundus microscopy, effect of liquid formulation; set-up: species or system New Zealand White rabbit
Experimental: After injection of a formulation into the SCS of an anesthetized rabbit, U/S B-scan was used to determine SCS thickness at multiple locations over time, from which the rate of SCS collapse was calculated, as shown at FIG. 9. In companion experiments, the approximate clearance rate of injected fluorescent material from the SCS was found by taking fluorescence fundus images in the rabbit eye in vivo over time until fluorescence was no longer visible.
Also investigated was the effect of liquid formulation viscosity on the timescale of clearance of fluorescein from the SCS. Using fundus microscopy, the time it took for there to be no visual evidence of fluorescein in the SCS was identified. […] This was likely due to the long-lived presence of viscous CMC gel in the SCS (as evidenced by the SCS remaining open for many days), which can slow diffusion of fluorescein out of the SCS.

SCS of live rabbits [6] = settings: New Zealand White, rabbit, in vivo, 3 min
SCS of live rabbits [7] = test: Collection of fluorescein by different clearance routes after SCS injection; assay type: in vivo, New Zealand White rabbit; settings: one hour post-injection
Experimental: To assess contributions of different routes of clearance, fluorescein from multiple collection sites was collected after SCS injection in vivo. The fluorescein collected from these collection sites was determined over time. The amount of fluorescein leaving through the injection site was found by subtracting site [i] from site [ii] (i.e., difference in fluorescein collected from sclera anterior to the equator without and with injection site plugged). And the amount of fluorescein leaving through blood was found by subtracting site [iv] from site [iii] (i.e., difference in fluorescein collected from sclera posterior to the equator with and without the vortex vein transected). Though the physiological data are inherently noisy, they should nevertheless enable an order of magnitude characterization of the underlying processes (which can be compared to a theoretical model of transport below). The amount of fluorescein collected over time is depicted at FIG. 17.
For this terminal experiment, the rabbit (N=4 eyes per group) was anesthetized with a subcutaneous injection of ketamine/xylazine before microneedle injection; additional injections were given every 30 minutes to maintain anesthesia. Subcutaneous injection of 60 mL saline was also given on the rump to counteract fluid loss. The amount of fluorescein exiting the eye was determined by collecting samples over time from [i] sclera anterior to the equator; [ii] anterior sclera with injection site plugged; [iii] sclera posterior to the equator; and [iv] posterior sclera with vortex vein transected.
Prior to microneedle injection, the supranasal conjunctiva was dissected off the sclera. […] In [i] anterior sclera and [iii] posterior sclera conditions, samples were collected for 1 hour by swabbing the space with a 1 cm×1 cm paper tissue (Kimwipe, Kimberley-Clark, Irving, Tex.). Care was taken to swab only anterior or posterior to the equator, depending on the condition. The tissue was then placed in 1 mL HBSS until analysis.
To determine the amount of fluorescein leaving [ii] the anterior sclera with injection site plugged, a similar experiment was performed. Immediately post-injection, the injection site was plugged by sealing the microneedle into sclera with cyanoacrylate glue (Loctite 4013, Düsseldorf, Germany). Other methods were the same as above.
Heparin (5 mL of 10,000 IU/mL; Hospira, Lake Forest, Ill.) was given intravenously prior to the start of the experiment to prevent coagulation. […] A transfer pipette was used to collect blood exiting the vortex vein for 1 hour. The volume of collected blood was recorded, and HBSS was added to reach a final volume of 2 mL per sample for analysis.
Immediately after the last time point, all animals were euthanized by injection of pentobarbital through the marginal ear vein. Eyes were enucleated to determine the amount of fluorescein remaining (i) within the tissue (including SCS), and (ii) in aqueous humor, vitreous humor, and lens. The Kimwipe paper tissue and ocular tissue samples were placed in HBSS at 4° C. for 2 days to allow fluorescein to diffuse out and equilibrate with the HBSS. The amount of fluorescein in all samples was measured using a multi-plate reader (Excitation: 494 nm, Emission: 521 nm, Synergy H4, BioTek, Winooski, Vt.). In a separate experiment involving incubation of Kimwipes in a known amount of fluorescein, we found no evidence of loss in extracting fluorescein from the Kimwipe, and no leaching of fluorescent species out of the Kimwipe.

SMILES	diffusivity [1]	ratio of area covered by fluorescein versus particles [2]	peak area coverage of the fluorescent species (of visible SCS area) (rabbit SCS in vivo [3]; 50 μL SCS injection in HBSS) [%]	total clearance of the fluorescently-tagged formulation excipient from the SCS (rabbit SCS in vivo [3]; HBSS = fluorescein in HBSS) [days]	clearance time constant (τclearance) (SCS of live rabbits [4]; exponential decay fit of fundus fluorescence) [h]	total clearance time from SCS (SCS of live rabbits [4]; fluorescence no longer visible) [h]	total clearance of fluorescein from the SCS (rabbit SCS in vivo [5]; injected in 5% CMC solution) [days]	total clearance of fluorescein from the SCS (rabbit SCS in vivo [5]; injected in HBSS) [days]	area of the visible SCS occupied (SCS of live rabbits [6]) [%]	fluorescein exited via perivascular drainage around the vortex vein (SCS of live rabbits [7]) [%]	fluorescein exited via the injection site (SCS of live rabbits [7]) [%]	fluorescein found in blood (SCS of live rabbits [7]) [%]	fluorescein passed transsclerally to the subconjunctival space (anterior and posterior combined) (SCS of live rabbits [7]) [%]	fluorescein still within tissue (sclera, choroid, SCS, etc.), of total injected (SCS of live rabbits [7]) [%]	fluorescein unaccounted for (SCS of live rabbits [7])
C=C(CC)C(=O)c1ccc(OCC(=O)O)c(Cl)c1Cl [ethacrynic acid]	5×10^−6 cm^2/s	–	–	–	–	–	–	–	–	–	–	–	–	–	–
O=C1OC2(c3ccc(O)cc3Oc3cc(O)ccc32)c2ccccc21 [fluorescein]	–	2.05±0.24	66	≤ 2	4.3 ± 0.4	≤ 24	2.7 ± 0.7	0.33 ± 0.05	56±6	2.5±0.3	1.3±4	6.3±4	15±0.3	46±18	About 28%
